{
  "source": "patent US12240854B2",
  "about": "“TRAF 6 inhibitors” (Helmholtz Zentrum München - Deutsches Forschungszentrum für …, priority 2018, dated 2025)",
  "key": {"E6AP": {"molecular_target": "T1, E6AP (Homo sapiens, UniProt Q05086)", "T1 construct": "purchased Boston Biochem", "T1 sequence (Q05086 whole entry)": "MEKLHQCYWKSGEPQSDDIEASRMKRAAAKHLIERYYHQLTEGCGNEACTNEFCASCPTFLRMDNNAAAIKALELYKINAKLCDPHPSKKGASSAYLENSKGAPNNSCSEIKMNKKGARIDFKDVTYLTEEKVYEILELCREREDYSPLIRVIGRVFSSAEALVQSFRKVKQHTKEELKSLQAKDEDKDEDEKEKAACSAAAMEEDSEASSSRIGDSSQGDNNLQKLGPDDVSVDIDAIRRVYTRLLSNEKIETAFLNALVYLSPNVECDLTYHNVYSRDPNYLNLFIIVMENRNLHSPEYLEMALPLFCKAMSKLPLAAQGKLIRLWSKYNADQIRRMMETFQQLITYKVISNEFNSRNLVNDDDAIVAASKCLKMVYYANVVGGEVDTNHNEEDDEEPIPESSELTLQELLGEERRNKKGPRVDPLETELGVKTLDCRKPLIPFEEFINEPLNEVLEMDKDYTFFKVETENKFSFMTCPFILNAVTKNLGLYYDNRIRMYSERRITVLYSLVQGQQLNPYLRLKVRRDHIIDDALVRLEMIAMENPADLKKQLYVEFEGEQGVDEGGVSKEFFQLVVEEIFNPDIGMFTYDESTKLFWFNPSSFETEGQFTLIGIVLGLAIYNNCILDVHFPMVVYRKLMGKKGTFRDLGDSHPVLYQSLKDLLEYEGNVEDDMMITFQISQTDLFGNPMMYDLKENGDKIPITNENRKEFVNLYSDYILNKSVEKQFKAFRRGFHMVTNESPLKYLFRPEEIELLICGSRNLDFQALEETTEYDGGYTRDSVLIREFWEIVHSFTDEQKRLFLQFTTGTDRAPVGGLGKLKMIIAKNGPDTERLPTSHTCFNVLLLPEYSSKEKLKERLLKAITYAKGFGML", "assay": "In vitro ubiquitination assay, E6AP ubiquitin ligase kit", "assay_type": "biochemical", "description": "(§1) For analysis of cIAP1, MDM2, TRIM63, RNF4, ITCH and E6AP mediated poly-ubiquitination, the respective ubiquitin ligase kit from Boston Biochem (K-102, K-260, K-200B, K-220, K-240 and K-270) was used. Here, reaction buffer, E1, E2 and E3 enzyme (and p53 substrate in case of MDM2) were mixed and pre-incubated with compound or DMSO for 5 minutes at room temperature before adding Mg^2+-ATP and mono-ubiquitin for reaction start. Ubiquitination was visualized by Western Blot analyses."}, "80 cancer cell lines": {"tested_on": "80 cancer cell lines", "assay": "Omniscreen cancer cell line panel, CellTiter-Glo", "assay_type": "cell-based", "details": "9 dose levels from 80 μM, 72 hours", "description": "The effect of C25-140 on cell viability of 80 cancer cell lines using the CellTiter-Glo luminescent cell viability assay was conducted at CrownBioscience Inc. at the testing facility in Beijing. Here, 80 selected cell lines were cultured in media supplemented with 10-15% FBS, in the temperature of 37° C., 5% CO2 and 95% humidity. Culture medium was purchased from GIBCO or Sigma, USA. The cells were treated with C25-140 in 9 dose levels starting at 80 μM with 3.16-fold serial dilutions. Cisplatin served as a reference control and started with a top working concentration of 100 μM. Test samples were incubated for 72 hours and cell viability was measured by the CellTiter-Glo assay."}, "[1]": {"tested_on": "Collagen-Induced Arthritis (CIA) Model in DBA1/J mice", "assay": "Collagen-Induced Arthritis (CIA) model", "assay_type": "in vivo, mouse", "description": "In order to test the potential of C25-140 to ameliorate RA symptoms, a Collagen-Induced Arthritis (CIA) Model in DBA1/J mice was performed by Washington Biotechnology, Inc. (Baltimore, USA). Each group of ten mice was subjected to a single subcutaneous injection of collagen/complete Freund's Adjuvant emulsion (0.05 ml/mouse; 100 μg collagen/CFA). After 20 days (day 21), mice were booster injected with collagen (0.05 ml/mouse; 100 μg/mouse collagen in Incomplete Freund's Adjuvant). On day 28, mice were scored for their Arthritic Index (AI) and 14 days intraperitoneally dosed twice daily with 6 mg/kg, 10 mg/kg and 14 mg/kg C25-140, respectively. Mice were scored of macroscopic signs of arthritis daily. Thereby, the following scoring index was applied to each individual paw: 0=no visible effects of arthritis; 1=edema and/or erythema of 1 digit; 2=edema and/or erythema of 2 digits; 3=edema and/or erythema of more than 2 digits; 4=severe arthritis of entire paw and digits. Single paw scores were added and recorded. On day 42, animals were euthanized, limbs were collected and histopathology was performed using Toluidine blue staining with scoring of several parameters."}, "HepG2 cells": {"tested_on": "HepG2 cells", "assay": "CellTiter-Glo viability assay, HepG2 cells", "assay_type": "cell-based", "details": "6 or 24 hours incubation", "description": "For cell viability experiments using the CellTiter-Glo® 2.0 system (Promega), MEF cells (1.2×10^3 cells/well), HepG2 cells (4×10^3 cells/well) and Jurkat T-cells (5×10^3 cells/well) were seeded in 384 well plates. After 18 hours, cells were treated with compounds using the Sciclone G3 automation system. After 6 or 24 hours incubation, the luciferase measurement was performed according to the manufacturer's manual."}, "[2]": {"assay": "Pharmacokinetic studies (IV, PO, IP)", "assay_type": "in vivo", "description": "All ADME (plasma stability, plasma protein binding, microsomal stability, Log D, Caco-2 assay, CYP450 inhibition and hERG predictor assay) as well as pharmacokinetic studies (Tmax, Cmax, AUC0-240min, Mean Residence Time, Elimination half life, Elimination rate constant, Volume of Distribution and Clearance) of C25-140 (compound 3) were conducted by Bienta Enamine Biology Services of Bienta/Enamine Ltd.\nThe inventors also tested the pharmacokinetics (PK) of C25-140 after intravenous (IV), peroral (PO) and intraperitoneal (IP) injection of each 10 mg/kg compound. All the analyzed data are summarized in FIG. 9B and the concentration/time-course graph for IP administration is shown in FIG. 9C."}, "[3]": {"molecular_target": "T2, Interaction of Ubc13 with Uev1a (Homo sapiens, UniProt P61088+Q13404)", "T2 construct": "GST (N); His; made in house", "T2 sequence (P61088 with tags, fused parts or gaps)": "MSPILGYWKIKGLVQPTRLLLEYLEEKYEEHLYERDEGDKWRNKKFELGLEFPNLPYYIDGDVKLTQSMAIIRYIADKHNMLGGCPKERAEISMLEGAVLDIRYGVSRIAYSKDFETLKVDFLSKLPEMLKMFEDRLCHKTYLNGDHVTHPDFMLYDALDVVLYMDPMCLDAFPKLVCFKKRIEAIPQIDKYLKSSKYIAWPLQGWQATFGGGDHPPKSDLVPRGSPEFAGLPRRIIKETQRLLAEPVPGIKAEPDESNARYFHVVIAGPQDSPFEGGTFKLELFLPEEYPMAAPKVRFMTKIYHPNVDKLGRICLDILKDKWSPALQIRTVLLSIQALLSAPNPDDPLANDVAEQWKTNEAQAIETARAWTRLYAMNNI", "T2 sequence (Q13404 with tags, fused parts or gaps isoform Q13404-7)": "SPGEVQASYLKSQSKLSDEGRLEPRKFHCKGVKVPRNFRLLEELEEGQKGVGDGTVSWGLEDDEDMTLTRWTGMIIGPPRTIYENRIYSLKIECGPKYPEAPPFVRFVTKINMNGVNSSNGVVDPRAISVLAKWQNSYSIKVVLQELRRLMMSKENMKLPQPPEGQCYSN", "assay": "Ubc13-Uev1a interaction (FIG. 2E)", "assay_type": "binding"}, "[4]": {"tested_on": "NF-κB target genes ICAM-1 and A20 in MEF cells", "assay": "mRNA expression (qRT-PCR) in MEF cells", "assay_type": "cell-based, mouse", "description": "For MEF cells, 1.2×10^5 cells per sample were seeded, treated with compound for 6 hours and stimulated with either IL-1β or TNFα for 60 minutes. Jurkat T-cells and primary mouse CD4^+ T-cells were seeded at 2×10^5 cells per sample, also treated with compound for 6 hours and stimulated with PMA/lonomycin for 3 hours. RNA was isolated according to the manufacturer's protocol of the Qiagen RNeasy Kit (MEF cells) or the STRATEC INVITRAP® SPIN UNIVERSAL RNA MINI KIT (Jurkat T-cells). The isolation of mRNA from […] white adipose tissue from DIO mice was performed using TRIzol® Reagent according to manufacturer's instruction. To clear the isolated RNA from genomic DNA, samples (up to 5 μg RNA) were treated with RQ1 RNase-Free DNaseI (Promega) as described in the technical manual. For the reverse transcription of RNA into cDNA, the DNaseI digested RNA samples were processed using the SuperScript III First Strand cDNA Synthesis System (Invitrogen/ThermoFisher Scientific) following the manufacturer's protocol. […] For quantification of cDNA in the samples, the LightCylcer480 (Roche) and the KAPA SYBR FAST qPCR Kit were used. For relative quantification, the ΔΔCp method first described by Pfaffl (Pfaffl, M. W., A new mathematical model for relative quantification in real-time RT-PCR. Nucleic Acids Res, 2001. 29(9): p. e45) was applied."}, "MURF/TRIM63": {"molecular_target": "T3, MURF/TRIM63 (Homo sapiens, UniProt Q969Q1)", "T3 construct": "purchased Boston Biochem", "T3 sequence (Q969Q1 whole entry)": "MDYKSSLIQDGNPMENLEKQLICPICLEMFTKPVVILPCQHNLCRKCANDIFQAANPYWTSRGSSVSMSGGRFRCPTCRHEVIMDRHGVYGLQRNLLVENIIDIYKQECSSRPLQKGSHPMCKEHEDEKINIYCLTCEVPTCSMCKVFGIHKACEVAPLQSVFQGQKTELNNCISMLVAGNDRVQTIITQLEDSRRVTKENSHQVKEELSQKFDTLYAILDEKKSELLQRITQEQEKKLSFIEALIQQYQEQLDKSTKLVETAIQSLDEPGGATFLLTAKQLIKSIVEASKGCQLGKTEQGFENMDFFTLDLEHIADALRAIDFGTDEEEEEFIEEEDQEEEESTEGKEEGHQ", "assay": "In vitro ubiquitination assay, TRIM63 ubiquitin ligase kit", "assay_type": "biochemical", "details": "K48 chain formation", "description": "as §1"}},
  "note": "“Also recorded” adds a separate entry of the source.",
  "data": [
    {"compound": "Cc1nn(-c2ccc3nnc(C)n3n2)c(C)c1CCC(=O)N1CCC(Cc2ccccc2)CC1", "note": "[Example C25-140, 1-(4-Benzylpiperidin-1-yl)-3-(3,5-dimethyl-1-(3-methyl-[1,2,4]-triazolo-[4,3-b]-pyridazin-6-yl)-1H-pyrazol-4-yl)-propan-1-one]", "values": [
      {"measurement": "S5A ubiquitination by E6AP", "setting": "E6AP", "result": "not influenced; also recorded: not affected"},
      {"measurement": "viability of control cell lines HS-5 and MCF 10A", "setting": "80 cancer cell lines", "result": "not affected at all"},
      {"measurement": "viability of cancer cell lines", "setting": "80 cancer cell lines; 78 cancer cell lines", "result": "major effect is on cancer cells of blood origin; also recorded: Various cancer cell lines died; also recorded: Major effects were visible in cancer cells of blood origin"},
      {"measurement": "arthritic index (AI)", "setting": "[1]; 6, 10 and 14 mg/kg IP twice daily, 14 days", "result": "dose-dependently reduced"},
      {"measurement": "RA symptoms / disease outcome (in words)", "setting": "[1]; CIA mouse model", "result": "ameliorates RA disease outcomes; also recorded: successfully counteracted clinical symptoms of RA and reversed the disease state; also recorded: eases symptoms"},
      {"measurement": "histological score of the limbs (inflammation, pannus formation, cartilage damage, bone resorption)", "setting": "[1]; day 42", "result": "dose-dependently improves RA symptoms; also recorded: attenuated"},
      {"measurement": "arthritic index (AI)", "setting": "[1]; doses of 10 mg/kg and 14 mg/kg IP twice daily", "result": "almost completely ameliorated the arthritic index to baseline levels"},
      {"measurement": "body weight", "setting": "[1]; throughout the study", "result": "did not show any signs of reduction; also recorded: do not show any signs of weight loss"},
      {"measurement": "metabolic activity and cell viability", "setting": "HepG2 cells", "result": "did not considerably impact cell viability; also recorded: does not considerably affect metabolic activity and cell viability up to 50 μM; also recorded: at the highest dose of 100 μM toxicity is noticeable"},
      {"measurement": "adverse effects on animals during the PK studies", "setting": "[2]; 10 mg/kg IV, PO, IP", "result": "no obvious adverse effects"},
      {"measurement": "in vivo half life (in words)", "setting": "[2]; IV, PO, IP", "result": "moderate in vivo half life"},
      {"measurement": "initial distribution phase (in words)", "setting": "[2]; IV, PO, IP", "result": "rapid initial distribution phase"},
      {"measurement": "bioavailability (in words)", "setting": "[2]; in vivo", "result": "good bioavailability"},
      {"measurement": "interaction of Ubc13 with Uev1a", "setting": "[3]", "result": "did not affect binding; also recorded: not affected"},
      {"measurement": "mRNA expression of target genes (ICAM-1 and A20)", "setting": "[4]; IL-1β stimulation", "result": "diminished target gene expression; also recorded: impaired"},
      {"measurement": "mRNA expression of target genes (ICAM-1 and A20)", "setting": "[4]; TNFα stimulation", "result": "also affects"},
      {"measurement": "S5A ubiquitination by MURF/TRIM63", "setting": "MURF/TRIM63", "result": "not influenced; also recorded: not affected"}
    ]}
  ]
}
